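Protocol summary: plate cells (96-well), add compound at 5 concentrations, incubate 48 h, interpolate endpoints linearly. Here, GI50 denotes the concentration required for 50% inhibition of growth.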 The source made the active and inactive calls. No stated cut-off is given here; in the data, active = GI50 up to about 1.1 µM and inactive = higher.
How the values were obtained:
Assay in all cases: growth of human tumour cells (NCI), 48 h
OVCAR-5 = system: OVCAR-5
SK-OV-3 = system: SK-OV-3
EKVX = system: EKVX
IGROV-1 = system: IGROV-1
NCI-H460 = system: NCI-H460
SF-268 = system: SF-268
KM12 = system: KM12
UACC-62 = system: UACC-62
SF-539 = system: SF-539
M14 = system: M14
Hs-578T = system: Hs-578T
K562 = system: K562
HOP-62 = system: HOP-62
OVCAR-4 = system: OVCAR-4
DU-145 = system: DU-145
SK-MEL-28 = system: SK-MEL-28
NCI/ADR-RES = system: NCI/ADR-RES
CAKI-1 = system: CAKI-1
PC-3 = system: PC-3
SK-MEL-5 = system: SK-MEL-5

Measured: GI50

CC1CC(C)C(C#N)N(C)c2ccccc21 (stereo not given)
inactive: OVCAR-5 > 100 µM | SK-OV-3 > 100 µM | EKVX > 100 µM | IGROV-1 > 100 µM | NCI-H460 > 100 µM | SF-268 > 100 µM | KM12 > 100 µM | UACC-62 97.5 µM | SF-539 > 100 µM | M14 > 100 µM | Hs-578T > 100 µM | K562 87.9 µM | HOP-62 > 100 µM | OVCAR-4 > 100 µM | DU-145 > 100 µM | SK-MEL-28 > 100 µM | NCI/ADR-RES > 100 µM | CAKI-1 > 100 µM | PC-3 > 100 µM | SK-MEL-5 37.7 µM

Cc1ccc(I)cc1N=C=S
inactive: OVCAR-5 23.4 µM | SK-OV-3 37.3 µM | EKVX 23.7 µM | IGROV-1 28.8 µM | NCI-H460 23.5 µM | SF-268 27.6 µM | KM12 17.3 µM | UACC-62 17.3 µM | SF-539 18.8 µM | M14 20.2 µM | Hs-578T 29.9 µM | K562 23 µM | HOP-62 26.1 µM | OVCAR-4 26.9 µM | DU-145 28.3 µM | SK-MEL-28 20.2 µM | NCI/ADR-RES 25.9 µM | CAKI-1 24.9 µM | PC-3 20.3 µM | SK-MEL-5 16.5 µM

O=C1CCSc2nc(-c3ccc4c(c3)OCO4)nn21
inactive: OVCAR-5 > 10 µM | SK-OV-3 > 10 µM | EKVX > 10 µM | IGROV-1 > 10 µM | NCI-H460 > 10 µM | SF-268 > 10 µM | KM12 > 10 µM | UACC-62 > 10 µM | SF-539 > 10 µM | M14 > 10 µM | Hs-578T > 10 µM | K562 > 10 µM | HOP-62 > 10 µM | OVCAR-4 > 10 µM | DU-145 > 10 µM | SK-MEL-28 > 10 µM | NCI/ADR-RES > 10 µM | CAKI-1 > 10 µM | PC-3 > 10 µM | SK-MEL-5 > 10 µM

N=C(N)N/N=C/c1c(-c2ccc([N+](=O)[O-])cc2)nc2n1CCS2
inactive: OVCAR-5 14.4 µM | SK-OV-3 20.3 µM | EKVX 18.3 µM | IGROV-1 17.4 µM | NCI-H460 15.3 µM | SF-268 9.55 µM | KM12 4.84 µM | UACC-62 16.7 µM | SF-539 16.3 µM | M14 14.5 µM | Hs-578T 16.7 µM | K562 3.86 µM | HOP-62 20.5 µM | OVCAR-4 7.85 µM | DU-145 14.6 µM | SK-MEL-28 17.3 µM | NCI/ADR-RES > 72.4 µM | CAKI-1 17.5 µM | PC-3 13.2 µM | SK-MEL-5 16.1 µM

CCOC(=O)C#Cc1cccc(C#CC(=O)OCC)c1
inactive: OVCAR-5 1.14 µM | SK-OV-3 7.55 µM | EKVX 1.14 µM | IGROV-1 18.2 µM | NCI-H460 11.1 µM | SF-268 6.52 µM | KM12 6.65 µM | UACC-62 4.94 µM | SF-539 5.14 µM | M14 2.13 µM | Hs-578T 9.55 µM | K562 1.91 µM | HOP-62 5.69 µM | OVCAR-4 3.59 µM | DU-145 6.52 µM | SK-MEL-28 5.33 µM | NCI/ADR-RES 6.05 µM | CAKI-1 4.93 µM | PC-3 6.21 µM | SK-MEL-5 4.25 µM

CC(C)(N)CO[C@H]1C[C@H]2CC[C@@]1(C)C2(C)C
inactive: OVCAR-5 18.5 µM | SK-OV-3 27.8 µM | EKVX 28.3 µM | IGROV-1 39.2 µM | NCI-H460 17.9 µM | SF-268 44.9 µM | KM12 18.1 µM | UACC-62 18.2 µM | SF-539 22.4 µM | M14 16 µM | Hs-578T 27.5 µM | K562 18.2 µM | HOP-62 20 µM | OVCAR-4 23.1 µM | DU-145 25.9 µM | SK-MEL-28 12.3 µM | NCI/ADR-RES 32.4 µM | CAKI-1 20.2 µM | PC-3 27.1 µM | SK-MEL-5 18.2 µM

From ChEMBL document CHEMBL1201862, “PubChem BioAssay data set” (2004)
